Measurements: patent KR20100130589A, “중독 치료에서의 aldh-2 저해제” (질레드 팔로 알토 인코포레이티드, priority 2008, dated 2009)
“Also recorded” adds a separate entry of the source.

How the values were obtained:
[1] = Cocaine reinstatement (relapse) after extinction of intravenous cocaine self-administration; format: in vivo, Sprague-Dawley rat; conditions: rat; for effect on cocaine-induced relapse, compared with Compound A (result in words): tested similarly
[2] = Nicotine intravenous self-administration; format: in vivo, Wistar-derived rat; conditions: rat, escalating doses 0.00, 7.5, 10 and 15 mg/kg ip, 30 min before session; Figure 1
[3] = in vivo; cited from earlier work
[4] = biological target: T1, human mitochondrial aldehyde dehydrogenase (ALDH-2) [인간 미토콘드리아 알데히드 디히드로게나아제 (ALDH-2)] (Homo sapiens, UniProt P05091); conditions: potency and selectivity in words; cited from earlier work
T1 sequence (P05091 18-517): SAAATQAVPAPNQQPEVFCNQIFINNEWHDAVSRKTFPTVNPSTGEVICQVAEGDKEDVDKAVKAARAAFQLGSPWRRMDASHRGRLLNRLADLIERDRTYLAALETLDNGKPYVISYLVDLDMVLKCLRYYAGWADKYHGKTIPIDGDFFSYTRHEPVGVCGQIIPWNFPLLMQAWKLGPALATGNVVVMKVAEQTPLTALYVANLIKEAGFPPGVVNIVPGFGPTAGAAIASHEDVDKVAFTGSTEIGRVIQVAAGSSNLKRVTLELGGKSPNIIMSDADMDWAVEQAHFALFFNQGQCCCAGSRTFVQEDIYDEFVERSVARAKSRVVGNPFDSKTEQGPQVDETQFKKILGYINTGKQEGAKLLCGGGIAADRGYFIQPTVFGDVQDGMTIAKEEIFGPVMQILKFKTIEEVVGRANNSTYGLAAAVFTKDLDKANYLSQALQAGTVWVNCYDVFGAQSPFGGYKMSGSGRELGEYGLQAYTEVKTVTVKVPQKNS

SMILES | effect on cocaine-induced relapse, compared with Compound A (result in words) [1] | suppression of ethanol intake / absorption (in words) [3] | other results
O=C(O)c1cccc(-c2nc(COc3ccc4c(=O)c(-c5ccc(O)cc5)coc4c3)no2)c1 [3-(3-{[3-(4-히드록시페닐)-4-옥소크로멘-7-일옥시]메틸}-1,2,4-옥사디아졸-5-일)벤조산] | 유사한 결과가 수득되었다 | – | –
CS(=O)(=O)Nc1ccc(-c2coc3cc(OCc4cccc(C(=O)O)c4)ccc3c2=O)cc1 [3-[(3-{4-[(메틸술포닐)아미노]페닐}-4-옥소크로멘-7-일옥시)메틸]벤조산] | – | – | number of bar presses for nicotine (plotted as number of infusions) [2]: 횟수를 감소시켰다; also recorded: 바아 프레스의 횟수를 감소시키는; lever press response after cocaine priming (effect in words) ([1]; 7.5 and 10 mg/kg before priming injection of cocaine (10 mg/kg)): 지렛대 누름 반응에서 증가를 보여주지 않았다 (재발하지 않음); cocaine relapse (effect in words) ([1]; ip, dose-dependent, cocaine priming 10 mg/kg): 투여량에 좌우되어 코카인에 대한 재발을 차단했다
O=c1c(-c2ccc(O)cc2)coc2cc(OCc3noc(-c4cc(F)cc(C(F)(F)F)c4)n3)ccc12 [7-({5-[3-플루오로-5-(트리플루오로메틸)페닐](1,2,4-옥사디아졸-3-일)}메톡시)-3-(4-히드록시페닐)크로멘-4-온] | 유사한 결과가 수득되었다 | – | –
O=c1c(-c2ccc(O)cc2)coc2cc(O[C@@H]3O[C@H](CO)[C@@H](O)[C@H](O)[C@H]3O)ccc12 [다이드진 (daidzein)] | – | 에탄올 섭취 억제에 효과적인 | –
O=c1c(-c2ccc(O)cc2)coc2cc(O)ccc12 [다이드진] | – | 에탄올 흡수 억제에 유효한 | inhibition of ALDH-2 (in words) [4]: 강력하고 선택적인 저해제
